The record followed here is article PMC4156053, “A Conserved Mitochondrial ATP-binding Cassette Transporter Exports Glutathione Polysulfide for Cytosolic Metal Cofactor Assembly” (The Journal of Biological Chemistry, 2014).

For this assay, the target named is T1, ATM3 (Arabidopsis thaliana, UniProt Q9LVM1).
T1 construct: gene ABCB25; inside-out membrane vesicles or Ni-NTA purified in detergent; half-transporter that dimerizes
In words: ATPase activity, malachite green Pi release. It is filed as biochemical. The conditions noted are these: 5 mM Na-ATP, 5 mM MgCl2, 0.1 M HEPES-KOH pH 7.0, 30 °C.

T1 sequence (Q9LVM1 61-728): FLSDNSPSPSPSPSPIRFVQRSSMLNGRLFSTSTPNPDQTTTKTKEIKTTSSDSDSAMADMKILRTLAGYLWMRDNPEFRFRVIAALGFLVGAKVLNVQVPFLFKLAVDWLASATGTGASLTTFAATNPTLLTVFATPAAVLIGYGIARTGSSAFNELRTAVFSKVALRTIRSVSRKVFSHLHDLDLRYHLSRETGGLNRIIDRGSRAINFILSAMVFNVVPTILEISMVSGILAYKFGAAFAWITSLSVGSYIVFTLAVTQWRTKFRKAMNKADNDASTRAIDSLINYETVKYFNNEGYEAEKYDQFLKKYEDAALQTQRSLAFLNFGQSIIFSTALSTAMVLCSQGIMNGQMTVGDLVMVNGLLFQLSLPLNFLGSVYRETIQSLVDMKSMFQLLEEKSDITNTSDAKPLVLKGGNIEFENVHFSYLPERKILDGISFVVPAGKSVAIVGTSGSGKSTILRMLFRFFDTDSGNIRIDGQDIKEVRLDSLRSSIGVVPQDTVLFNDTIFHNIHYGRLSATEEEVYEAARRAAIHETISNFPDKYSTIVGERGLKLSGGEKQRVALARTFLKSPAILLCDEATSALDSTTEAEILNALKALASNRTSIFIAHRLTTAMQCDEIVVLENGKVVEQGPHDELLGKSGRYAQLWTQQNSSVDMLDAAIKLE

Consider `Nc1ncnc2c1ncn2[C@@H]1O[C@H](COP(=O)(O)OP(=O)(O)OP(=O)(O)O)[C@@H](O)[C@H]1O` [ATP], for which the “ATPase activity, malachite green Pi release” value was “retained their ATPase activity in detergent solution”.
